Data on four molecules can be found in publication PMC7565988, “Insight into the Anticancer Activity of Copper(II) 5-Methylenetrimethylammonium-Thiosemicarbazonates and Their Interaction with Organic Cation Transporters” (Biomolecules, 2020).

A word on the IC50: it is the point on the concentration scale where inhibition reaches its midpoint.

Like-named read-outs stand apart in the source and are kept apart here.

Series [1] in a line: Redox reaction of copper(II) complexes with GSH, anaerobic UV/Vis kinetics. The series is classed as physicochemical. The settings on record: copper(II) complex (1–4) of the proligand, pH = 7.4, ccomplex = 25 μM, cGSH = 1.25 mM. How it is done: The redox reactions of the copper(II) complexes with GSH and AA were studied at 25.0 ± 0.1 °C on Hewlett Packard 8452A diode array spectrophotometer using a special, tightly closed tandem cuvette (Hellma Tandem Cell, 238-QS). The reactants were separated until the reaction was triggered. Both isolated pockets of the cuvette were completely deoxygenated by bubbling a stream of argon for 10–15 min before mixing the reactants. Spectra were recorded before and then immediately after the mixing, and changes were followed until no further absorbance change was observed. One of the isolated pockets contained the reducing agent and its concentration was 1250 μM and the other contained 25 μM copper(II) complex. The pH of all the solutions was adjusted to 7.40 by 50 mM HEPES buffer and an ionic strength of 0.1 M (KCl) was applied. The stock solutions of the reducing agents and the complexes were freshly prepared every day. During the calculations, the absorbance (A) − time (t) curves were fitted and analysed at the λmax of the complex. (A0 − Afinal) × e^(−a×t) + Afinal equation was used where A0, Afinal and a parameters were refined and accepted at the minimal value of the weighted sum of squared residuals (difference between the measured and calculated absorbance values) at the given wavelength. Then observed rate constants (kobs) of the redox reaction were obtained from the data points of the simulated absorbance–time curves as the slope of the ln(A/A0) versus t plots.

Series [2] deals with Colo 205 doxorubicin-sensitive colonic adenocarcinoma cells. Put plainly: MTT cytotoxicity (24 h) / antiproliferation (72 h) assay. Format: cell-based, human. The following applies: Homo sapiens, read-out: Colo205 IC50. How it is done: Human doxorubicin-sensitive Colo 205 (ATCC-CCL-222) and multidrug resistant Colo 320 (overexpressing ABCB1 (MDR1)-LRP (ATCC-CCL-220.1)) colonic adenocarcinoma cell lines were purchased from LGC Promochem, Teddington, UK. The cells were cultured in RPMI 1640 medium supplemented with 10% heat-inactivated fetal bovine serum, 2 mM L-glutamine, 1 mM Na-pyruvate and 100 mM Hepes. The cell lines were incubated at 37 °C, in a 5% CO2, 95% air atmosphere. The semi-adherent human colon cancer cells were detached with Trypsin-Versene (EDTA) solution for 5 min at 37 °C.
(§1) In the study non-cancerous human embryonic lung fibroblast MRC-5, human colonic adenocarcinoma cell line (doxorubicin-sensitive Colo 205, multidrug resistant Colo 320) and neuroblastoma cell line SH-SY5Y were used to determine the effect of compounds on cell growth. The effects of increasing concentrations of compounds on cell growth were tested in 96-well flat-bottomed microtiter plates. The compounds were diluted in a volume of 100 μL of medium.
In case of the colonic adenocarcinoma cells, the two-fold serial dilutions of compounds were prepared in 100 μL of RPMI 1640, horizontally. The semi-adherent colonic adenocarcinoma cells were treated with Trypsin–Versene (EDTA) solution. The cells were adjusted to a density of 2 × 10^4 cells in 100 μL of RPMI 1640 medium, and were added to each well, with the exception of the medium control wells. The final volume of the wells containing compounds and cells was 200 μL.
(§2) The culture plates were incubated at 37 °C for 24 h; at the end of the incubation period, 20 μL of MTT (thiazolyl blue tetrazolium bromide, Sigma) solution (from a stock solution of 5 mg/mL) were added to each well. After incubation at 37 °C for 4 h, 100 μL of sodium dodecyl sulfate (SDS) (Sigma) solution (10% in 0.01 M HCI) were added to each well and the plates were further incubated at 37 °C overnight. Cell growth was determined by measuring the optical density (OD) at 540/630 nm with Multiscan EX ELISA reader (Thermo Labsystems, Cheshire, WA, USA). […] Curves were fitted by GraphPad Prism software using the sigmoidal dose-response model (comparing variable and fixed slopes).
(§3) The method is similar to the one described in the assay for cytotoxic effect. […] The culture plates were incubated at 37 °C for 72 h and after the incubation time, the plates were stained with MTT according to the previous experimental protocol described for the cytotoxicity assay.

Series [3] in a line: Solution stability of copper(II) complexes, UV/Vis spectrophotometric titration. Format: physicochemical. The following applies: for logβ [Cu(HL)]2+ / logβ [CuL]+: copper(II) complex of the proligand; for logβ [Cu(HL)]2+ / logβ [CuL]+ / logβ [CuLH−1]: I = 0.1 M (KCl), t = 25 °C; for logKderived [CuLH−1]+: logβ [CuL]+ − pKa (H2L+); for logβ [CuLH−1]: mixed hydroxido [CuL(OH)] species; for pCu (−log[Cu(II)]): pH = 7.4, cCu(II) = 10 μM, cL = 10 μM. How it is done: An Agilent Carry 8454 diode array spectrophotometer was used to record the UV/Vis spectra in the interval 200–800 nm. The path length was 1 cm. Proton dissociation constants (pKa) of the TSC ligands, the overall stability constants of the copper(II) monoligand complexes (logβ) and the individual spectra of the species in the various protonation states and stoichiometry were calculated by the computer program PSEQUAD [44]. Spectrophotometric titrations were performed on samples containing the proligands at 50 μM concentration by a KOH solution in the presence of 0.1 M KCl at 25.0 ± 0.1 °C in the pH range from 2 to 11.5, and the metal-to-ligand ratio was 1:0, 1:1 and 1:2. An Orion 710A pH-meter equipped with a Metrohm combined electrode (type 6.0234.100) and a Metrohm 665 Dosimat burette were used for the titrations. […] The average water ionisation constant (pKw) is 13.76 ± 0.05 in water. Argon was also passed over the solutions during the titrations. Measurements were also carried out in the range of ca. 1.0–2.0 by preparing individual samples in which KCl was partially or completely replaced by HCl and pH values (between 1 and 2) were calculated from the strong acid content.

Series [4] concerns SH-SY5Y neuroblastoma cells. Nature of the series: MTT cytotoxicity (24 h) / antiproliferation (72 h) assay. The series is classed as cell-based, human. The following applies: SH-SY5Y; for IC50: Homo sapiens, MTT; for enhancement of cytotoxicity by chelation to copper(II), factor: proligand vs its copper(II) complex. How it is done: SH-SY5Y (ATCC® CRL-2266™) neuroblastoma cell line was purchased from LGC Promochem, Teddington, UK. The cell line was cultured in Eagle’s Minimal Essential Medium (EMEM, containing 4.5 g/L glucose) supplemented with a non-essential amino acid mixture, a selection of vitamins and 10% heat-inactivated foetal bovine serum. The cell line was incubated at 37 °C, in a 5% CO2, 95% air atmosphere.
as §1
The adherent human embryonal lung fibroblast and SH-SY5Y neuroblastoma cells were cultured in 96-well flat-bottomed microtiter plates, using EMEM supplemented with 10% heat-inactivated foetal bovine serum. The density of the cells was adjusted to 2 × 10^4 cells in 100 μL per well, the cells were seeded for 24 h at 37 °C, 5% CO2, then the medium was removed from the plates containing the cells, and the dilutions of compounds previously made in a separate plate were added to the cells in 200 μL.
as §2, §3

`CCNC(=S)N/N=C/c1cc(C[N+](C)(C)C)ccc1O` [[H2L^Et]Cl]: the “kobs, observed rate constant of the redox reaction with GSH” value (shortened to “kobs, observed rate constant”) in series [1] was determined as 0.058 ± 0.001 min⁻¹. The IC50 in series [2] (COLO 205, 24 h exposure) is > 100 µM. For the same molecule, in series [2] (COLO 205, 72 h exposure), the IC50 was > 100 µM. In addition, in series [3], the “logβ [Cu(HL)]2+” value is listed as 11.66 ± 0.03, the “logβ [CuL]+” value is reported as 7.67 ± 0.03, the “logKderived [CuLH−1]+” value is recorded as 0.36 and the “logβ [CuLH−1]” value is on record as −1.65 ± 0.09. For the same molecule, the “pCu (−log[Cu(II)])” value in series [3] was 11.82. In series [4] (24 h exposure), this molecule yielded an IC50 of 88.1 ± 9.19 µM. Also, the IC50 in series [4] (72 h exposure) was found to be 49.9 ± 3.97 µM.

On to `C[N+](C)(C)Cc1ccc(O)c(/C=N/NC(N)=S)c1` [[H2L^H]Cl], for which the “kobs, observed rate constant” value in series [1] was 0.080 ± 0.008 min⁻¹. The IC50 in series [2] (COLO 205, 24 h exposure) was > 100 µM. For the same molecule, the concentration for half-maximal inhibition (IC50) in series [2] (COLO 205, 72 h exposure) is > 100 µM. Moreover, in series [3], the “logβ [Cu(HL)]2+” value was 12.00 ± 0.01, the “logβ [CuL]+” value is 8.14 ± 0.01, the “logKderived [CuLH−1]+” value was determined as 0.68 and the “logβ [CuLH−1]” value is listed as −1.66 ± 0.02. For the same molecule, in series [3], the “pCu (−log[Cu(II)])” value turned out to be 12.21. Further, the IC50 in series [4] (24 h exposure) was > 100 µM. Moreover, the IC50 in series [4] (72 h exposure) was > 100 µM. In addition, the “enhancement of cytotoxicity by chelation to copper(II), factor” value in series [4] is “ca. 2”.

As to `CNC(=S)N/N=C/c1cc(C[N+](C)(C)C)ccc1O` [[H2L^Me]Cl], in series [1], the “kobs, observed rate constant” value is 0.073 ± 0.002 min⁻¹. Moreover, the IC50 in series [2] (COLO 205, 24 h exposure) was > 100 µM. For the same molecule, the IC50 in series [2] (COLO 205, 72 h exposure) is > 100 µM. For the same molecule, in series [3], the “logβ [Cu(HL)]2+” value turned out to be 11.73 ± 0.02, the “logβ [CuL]+” value was found to be 7.76 ± 0.02, the “logKderived [CuLH−1]+” value stood at 0.22 and the “logβ [CuLH−1]” value is given as −1.48 ± 0.08. The “pCu (−log[Cu(II)])” value in series [3] was 11.79. For the same molecule, the IC50 in series [4] (24 h exposure) is > 100 µM. Moreover, in series [4] (72 h exposure), the IC50 is > 100 µM. The “enhancement of cytotoxicity by chelation to copper(II), factor” value in series [4] is listed as “ca. 7”.

Regarding `C[N+](C)(C)Cc1ccc(O)c(/C=N/NC(=S)Nc2ccccc2)c1` [[H2L^Ph]Cl], in series [1], the “kobs, observed rate constant” value was determined as 0.025 ± 0.005 min⁻¹. In addition, in series [2] (COLO 205, 24 h exposure), the IC50 is > 100 µM. Moreover, in series [2] (COLO 205, 72 h exposure), the IC50 is > 100 µM. In series [3], the “logβ [Cu(HL)]2+” value is 11.26 ± 0.02, the “logβ [CuL]+” value was determined as 8.55 ± 0.02, the “logKderived [CuLH−1]+” value came out at 1.52 and the “logβ [CuLH−1]” value is recorded as −1.31 ± 0.05. For the same molecule, the “pCu (−log[Cu(II)])” value in series [3] is listed as 12.80. For the same molecule, the IC50 in series [4] (24 h exposure) was > 100 µM. For the same molecule, in series [4] (72 h exposure), it took 31.5 ± 2.66 µM to reach half-maximal inhibition (IC50).
